Common to all, as to experiment: inhibition of tumour cell growth, NCI panel, 48 h
The test system of test [1] is CAKI-1.
Test [2] relates to DU-145.
For test [3], the system named is HCC 2998.
The test system of test [4] is HCT-116.
The subject of test [5] is HCT-15.
In test [6] the test system is HT-29.
The test system of test [7] is Hs-578T.
The test system of test [8] is MCF7.
Test [9] deals with MDA-N.
Test [10] relates to Malme-3M.
Test [11] deals with NCI-H226.
Test [12] relates to NCI-H23.
For test [13], the system named is NCI-H522.
Test [14] has as its system OVCAR-8.
The subject of test [15] is SK-MEL-28.
Test [16] has as its system SK-OV-3.
In test [17] the test system is SN12C.
The subject of test [18] is SW-620.
In test [19] the test system is U-251.
Test [20] relates to UACC-62.

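These data come from cells grown in 96-well plates and exposed to compound for 48 hours at five concentrations. GI50 is the concentration that inhibits growth by half.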 Activity calls are given as the source filed them. Rule as the data show it: active = GI50 up to about 1.1 µM and inactive = higher.

For `N=c1nc2n(cc1F)[C@@H]1O[C@H](CO)[C@@H](O)[C@@H]1O2`, the GI50 in test [1] was 3.45 µM (inactive); in test [2] it was 0.971 µM (active); in test [3] it was > 56 µM (inactive); in [4], 1.31 µM (inactive); in test [5] it was above 90.2 µM; in test [6], 34.4 µM (inactive). Also, the GI50 was > 100 µM (inactive) in test [7]; 1.14 µM (inactive) in [8]; > 100 µM (inactive) in test [9]; 9.42 µM (inactive) in test [10]; 17.3 µM (inactive) in [11]; 2.29 µM (inactive) in [12]. The GI50 is 4.18 µM (inactive) in test [13]; 1.04 µM (active) in [14]; > 63.7 µM (inactive) in test [15]; 8.55 µM (inactive) in [16]; 14.4 µM (inactive) in test [17]; > 20.5 µM (inactive) in [18]. Further, the GI50 in test [19] was 24.8 µM (inactive); in test [20] it was > 92.5 µM (inactive).

Take `Cc1ccccc1OC(C)C(=O)NN1C(=O)CSC1c1ccc(Cl)cc1` (stereo not given): the GI50 was 56.6 µM (inactive) in [1]; 38.2 µM (inactive) in test [2]; 34.9 µM (inactive) in [3]; 31.4 µM (inactive) in test [4]; 46.6 µM in [5]; 18.4 µM (inactive) in [6]. For the same compound, the GI50 in test [7] was 41.8 µM (inactive); in test [8], 32.1 µM (inactive); in [9] it was 60.3 µM (inactive); in test [10], 25.7 µM (inactive); in test [11] it was > 49.1 µM (inactive); in test [12] it was 56.1 µM (inactive). In addition, the GI50 was 4.16 µM (inactive) in test [13]; 52 µM (inactive) in test [14]; 73.3 µM (inactive) in [15]; 47.1 µM (inactive) in [16]; 17.5 µM (inactive) in test [17]; 32.1 µM (inactive) in [18]. The GI50 in [19] was 30 µM (inactive); in test [20], 58.9 µM (inactive).

For `COC(=O)CCCC1(CCCC(=O)OC)CCCCCCCCC(CCCC(=O)OC)(CCCC(=O)OC)C(=O)C1=O`, the GI50 is 9.84 µM (inactive) in [1]; > 100 µM (inactive) in test [2]; > 100 µM (inactive) in test [3]; 9.44 µM (inactive) in test [4]; above 100 µM in test [5]; 43.5 µM (inactive) in [6]. Moreover, the GI50 in test [7] was 14.8 µM (inactive); in [8] it was 85.5 µM (inactive); in test [9], > 100 µM (inactive); in test [10], 26.1 µM (inactive); in test [11] it was > 100 µM (inactive); in [12], 18.6 µM (inactive). For the same compound, the GI50 in test [13] is 2.24 µM (inactive); in test [14], 50.7 µM (inactive); in test [15], > 100 µM (inactive); in test [16], > 100 µM (inactive); in [17], > 100 µM (inactive); in [18], > 100 µM (inactive). Besides, the GI50 in test [19] was 18.9 µM (inactive); in test [20], 13.6 µM (inactive).
